# Starred links: 1 amine or outer side, 2 acyl side, 3 side chain; linkers in the order of their positions; H or OH if unused. Positions of bridges follow the written chain, without caps; N, C: chain ends. Non-standard residues stand in square brackets, D forms with d. Residues, ends and D or L forms follow the SMILES beside them. *: point of attachment. hPhe(3,5-F2-4-CF3) = N[C@@H](CCc1cc(F)c(C(F)(F)F)c(F)c1)C(=O)O; hPhe(3-Cl-4-CF3) = N[C@@H](CCc1ccc(C(F)(F)F)c(Cl)c1)C(=O)O; hPhe(3-F,4-CF3) = N[C@@H](CCc1ccc(C(F)(F)F)c(F)c1)C(=O)O; NMePhe(4-CF3) = CN[C@@H](Cc1ccc(C(F)(F)F)cc1)C(=O)O; X63 = O=C(C(CCc1ccc(C(F)(F)F)c(Cl)c1)N[*:1])[*:2]; NMeTyr(3-F) = CN[C@@H](Cc1ccc(O)c(F)c1)C(=O)O; NEtPhe(2-Cl) = CCN[C@@H](Cc1ccccc1Cl)C(=O)O; NMePhe(4-Me) = CN[C@@H](Cc1ccc(C)cc1)C(=O)O; X6 = CCN([C@@H](CC1CCCCC1)C(=O)[*:2])[*:1]; NMedβ3hAla = C[C@H](CC(=O)[*:2])N(C)[*:1]; NMeAla(cPent) = CN[C@@H](CC1CCCC1)C(=O)O; NMeGly(cPent) = CN[C@H](C(=O)O)C1CCCC1; NMe4Pal = CN[C@@H](Cc1ccncc1)C(=O)O; NMeY = CN[C@@H](Cc1ccc(O)cc1)C(=O)O; X64 = CN(C)CCOCCN(CC(=O)[*:2])[*:1]; NMeCha = CN[C@@H](CC1CCCCC1)C(=O)O; NMeChg = CN[C@H](C(=O)O)C1CCCCC1; NMeI = CC[C@H](C)[C@H](NC)C(=O)O; NMeD = CN[C@@H](CC(=O)O)C(=O)O; NMeL = CN[C@@H](CC(C)C)C(=O)O; NMeAc5c = CNC1(C(=O)O)CCCC1; NMeV = CN[C@H](C(=O)O)C(C)C; NMeAbu = CC[C@H](NC)C(=O)O; NMeA = CN[C@@H](C)C(=O)O; NMeAib = CNC(C)(C)C(=O)O; Piperidide = C1CCN(*)CC1; Pyrrolidide = C1CCN(*)C1; Ac5c = NC1(C(=O)O)CCCC1; Aze = O=C(O)[C@@H]1CCN1; Sar = CNCC(=O)O
# Test system: Human pancreatic cancer cell line AsPC-1
# Assay: Measurement of AsPC-1 cell growth inhibition (AsPC-1 CGI)
# Format: cell-based
# Settings: 96 h
# Experimental: Measurement of AsPC-1 Cell Growth Inhibition (AsPC-1 CGI)
# Test compounds were serially diluted with dimethyl sulfoxide, and 200 nL was then dispensed to a U-bottom 96-well plate using Labcyte Echo. Human pancreatic cancer cell line AsPC-1 was suspended in RPMI-1640 medium supplemented with 15% fetal bovine serum to prepare a cell suspension at 1000 cells/100 μL. The cell suspension was dispensed to a plate containing a test compound at 100 μL per well and incubated at 37° C. in a 5% carbon dioxide gas incubator. 96 hours later, 80 μL of CellTiter-Glo (Promega) was added to each well and […] was measured.
row,Compound,IC50 [nM]
1,"CC[C@H](C)[C@@H]1NC(=O)[C@H](CC(C)C)N(C)C(=O)C[C@@H](C)N(C)C(=O)[C@H](CC(C)C)NC(=O)C2(CCCC2)N(C)C(=O)[C@H](CC(C)C)NC(=O)[C@H](CCc2ccc(C(F)(F)F)c(F)c2)NC(=O)CN(C)C(=O)[C@H](CC2CCCCC2)N(C)C(=O)CN(C)C(=O)CN(C)C1=O [Compound 2] (cyclo(I[Sar][Sar][NMeCha][Sar][hPhe(3-F,4-CF3)]L[NMeAc5c]L[NMedβ3hAla][NMeL]))",100 to 500
2,CC[C@H](C)[C@@H]1NC(=O)[C@H](CC(C)C)N(C)C(=O)C[C@@H](C(=O)N2CCCCC2)N(C)C(=O)[C@H](C(C)C)N(C)C(=O)C2(CCCC2)NC(=O)[C@@H]2CCCN2C(=O)[C@H](CCc2ccc(C(F)(F)F)c(Cl)c2)NC(=O)CN(C)C(=O)[C@H](CC2CCCCC2)N(CC)C(=O)[C@@H]2CCN2C(=O)[C@H](C)N(C)C1=O [Compound 23] ([NMeL]I[NMeA][Aze][X6][Sar][hPhe(3-Cl-4-CF3)]P[Ac5c][NMeV][NMeD]-Piperidide; lactam N-11),100 to 500
3,CC[C@H](C)[C@@H]1NC(=O)[C@H](CC(C)C)N(C)C(=O)C[C@@H](C(=O)N2CCCCC2)N(C)C(=O)[C@H](C2CCCCC2)N(C)C(=O)C2(CCCC2)NC(=O)[C@H](Cc2ccncc2)N(C)C(=O)[C@H](CCc2ccc(C(F)(F)F)c(Cl)c2)NC(=O)CN(C)C(=O)[C@H](CC2CCCCC2)N(C)C(=O)CN(C)C(=O)CN(C)C1=O [Compound 36] ([NMeL]I[Sar][Sar][NMeCha][Sar][hPhe(3-Cl-4-CF3)][NMe4Pal][Ac5c][NMeChg][NMeD]-Piperidide; lactam N-11),100 to 500
4,CC[C@H](C)[C@@H]1NC(=O)[C@H](CC2CCCC2)N(C)C(=O)C[C@@H](C(=O)N2CCCCC2)N(C)C(=O)[C@H](C(C)C)N(C)C(=O)C2(CCCC2)NC(=O)[C@@H]2CCCN2C(=O)[C@H](CCc2ccc(C(F)(F)F)c(Cl)c2)NC(=O)CN(C)C(=O)[C@H](CC2CCCCC2)N(C)C(=O)[C@@H]2CCN2C(=O)[C@H](C)N(C)C1=O [Compound 37] ([NMeAla(cPent)]I[NMeA][Aze][NMeCha][Sar][hPhe(3-Cl-4-CF3)]P[Ac5c][NMeV][NMeD]-Piperidide; lactam N-11),100 to 500
5,"CC[C@H](C)[C@@H]1NC(=O)[C@H](CC(C)C)N(C)C(=O)C[C@@H](C)N(C)C(=O)[C@H](C2CCCCC2)N(C)C(=O)C2(CCCC2)NC(=O)[C@@H]2CCCN2C(=O)[C@H](CCc2cc(F)c(C(F)(F)F)c(F)c2)NC(=O)CN(C)C(=O)[C@H](Cc2ccc(C(F)(F)F)cc2)N(C)C(=O)[C@@H]2CCN2C(=O)[C@H](C)N(C)C1=O [Compound 39] (cyclo([Ac5c][NMeChg][NMedβ3hAla][NMeL]I[NMeA][Aze][NMePhe(4-CF3)][Sar][hPhe(3,5-F2-4-CF3)]P))",100 to 500
6,"CC[C@H](C)[C@@H]1NC(=O)[C@H](CC(C)C)N(C)C(=O)C[C@@H](C(=O)N2CCCC2)N(C)C(=O)[C@H]([C@@H](C)CC)N(C)C(=O)C2(CCCC2)NC(=O)[C@@H]2CCCN2C(=O)[C@H](CCc2ccc(C(F)(F)F)c(F)c2)NC(=O)CN(C)C(=O)[C@H](Cc2ccc(C)cc2)N(C)C(=O)[C@@H]2CCN2C(=O)[C@H](C)N(C)C1=O [Compound 44] ([NMeL]I[NMeA][Aze][NMePhe(4-Me)][Sar][hPhe(3-F,4-CF3)]P[Ac5c][NMeI][NMeD]-Pyrrolidide; lactam N-11)",20 to 50
7,"CC[C@H](C)[C@@H]1NC(=O)[C@H](CC(C)C)N(C)C(=O)C[C@@H](C)N(C)C(=O)[C@H](C2CCCC2)N(C)C(=O)C2(CCCC2)NC(=O)[C@@H]2CCCN2C(=O)[C@H](CCc2ccc(C(F)(F)F)c(F)c2)NC(=O)CN(C)C(=O)[C@H](CC2CCCCC2)N(C)C(=O)[C@@H]2CCN2C(=O)[C@H](C)N(C)C1=O [Compound 49] (cyclo([Ac5c][NMeGly(cPent)][NMedβ3hAla][NMeL]I[NMeA][Aze][NMeCha][Sar][hPhe(3-F,4-CF3)]P))",20 to 50

# Molecular target: T1, Kras and SOS1 (biotin-tagged human Kras loaded with GDP, His-tagged human SOS1) (Homo sapiens, UniProt P01116, G12D)
# T1 construct: made in house; host or cells: E. coli (stated for Kras only)
# T1 sequence (P01116 1-188 isoform P01116-2 G12D): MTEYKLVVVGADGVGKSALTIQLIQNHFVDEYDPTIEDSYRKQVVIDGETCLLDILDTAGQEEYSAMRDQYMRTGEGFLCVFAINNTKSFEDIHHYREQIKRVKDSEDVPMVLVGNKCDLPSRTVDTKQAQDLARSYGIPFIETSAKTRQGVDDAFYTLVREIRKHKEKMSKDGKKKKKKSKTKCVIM
# Assay: Protein-protein interaction inhibition between Kras and SOS1 (KrasGl2D-SOS PPI) using AlphaScreen
# Format: binding
# Settings: AlphaScreen; biotin-tagged human Kras loaded with GDP, His-tagged human SOS1; read-out: KRAS G12D-SOS PPI IC50
# Method in brief: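 Read-out is acceptor-bead light at 520-620 nm, arising when 680 nm-irradiated nickel donor beads pass singlet oxygen to streptavidin acceptors. The bead pair links His-tagged SOS1 with biotin-tagged, GDP-bound Kras from E. coli.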
row,Compound,IC50 [nM]
1,CC[C@H](C)[C@@H]1NC(=O)[C@H](C)N(C)C(=O)C[C@@H](C)N(C)C(=O)[C@H]([C@@H](C)CC)N(C)C(=O)C(C)(C)N(C)C(=O)[C@@H]2CCCN2C(=O)[C@H](CCc2ccc(C(F)(F)F)c(Cl)c2)NC(=O)CN(C)C(=O)[C@H](CC2CCCCC2)N(C)C(=O)[C@@H]2CCN2C(=O)[C@H](C)N(C)C1=O [Compound 2153] (cyclo([Aze][NMeCha][Sar][hPhe(3-Cl-4-CF3)]P[NMeAib][NMeI][NMedβ3hAla][NMeA]I[NMeA])),6.9
2,CC[C@H](C)[C@@H]1NC(=O)[C@H](C)N(C)C(=O)C[C@@H](C)N(C)C(=O)[C@H](CC)N(C)C(=O)C(C)(C)N(C)C(=O)[C@@H]2CCCN2C(=O)[C@H](CCc2ccc(C(F)(F)F)c(Cl)c2)NC(=O)CN(C)C(=O)[C@H](CC2CCCCC2)N(C)C(=O)[C@@H]2CCN2C(=O)[C@H](C)N(C)C1=O [Compound 2154] (cyclo([Aze][NMeCha][Sar][hPhe(3-Cl-4-CF3)]P[NMeAib][NMeAbu][NMedβ3hAla][NMeA]I[NMeA])),33
3,CC[C@H](C)[C@@H]1NC(=O)[C@H](C)N(C)C(=O)C[C@@H](C)N(C)C(=O)[C@H](C2CCCC2)N(C)C(=O)C(C)(C)N(C)C(=O)[C@@H]2CCCN2C(=O)[C@H](CCc2ccc(C(F)(F)F)c(Cl)c2)NC(=O)CN(C)C(=O)[C@H](CC2CCCCC2)N(C)C(=O)[C@@H]2CCN2C(=O)[C@H](C)N(C)C1=O [Compound 2156] (cyclo([Aze][NMeCha][Sar][hPhe(3-Cl-4-CF3)]P[NMeAib][NMeGly(cPent)][NMedβ3hAla][NMeA]I[NMeA])),4.5
4,CC[C@H](C)[C@@H]1NC(=O)[C@H](C)N(C)C(=O)C[C@@H](C)N(C)C(=O)[C@H](CC2CCCC2)N(C)C(=O)C(C)(C)N(C)C(=O)[C@@H]2CCCN2C(=O)[C@H](CCc2ccc(C(F)(F)F)c(Cl)c2)NC(=O)CN(C)C(=O)[C@H](CC2CCCCC2)N(C)C(=O)[C@@H]2CCN2C(=O)[C@H](C)N(C)C1=O [Compound 2158] (cyclo([Aze][NMeCha][Sar][hPhe(3-Cl-4-CF3)]P[NMeAib][NMeAla(cPent)][NMedβ3hAla][NMeA]I[NMeA])),89
5,CC[C@H](C)[C@@H]1NC(=O)[C@H](C)N(C)C(=O)C[C@@H](C)N(C)C(=O)[C@H](CC(C)C)N(C)C(=O)C(C)(C)N(C)C(=O)[C@@H]2CCCN2C(=O)[C@H](CCc2ccc(C(F)(F)F)c(Cl)c2)NC(=O)CN(C)C(=O)[C@H](CC2CCCCC2)N(C)C(=O)[C@@H]2CCN2C(=O)[C@H](C)N(C)C1=O [Compound 2160] (cyclo([Aze][NMeCha][Sar][hPhe(3-Cl-4-CF3)]P[NMeAib][NMeL][NMedβ3hAla][NMeA]I[NMeA])),3.8
6,CC[C@H](C)[C@@H]1NC(=O)[C@H](C)N(C)C(=O)C[C@@H](C(=O)N2CCCC2)N(C)C(=O)[C@H](C(C)C)N(C)C(=O)C2(CCCC2)NC(=O)[C@H](Cc2ccccc2Cl)N(CC)C(=O)[C@H](CCc2ccc(C(F)(F)F)c(Cl)c2)NC(=O)CN(C)C(=O)[C@H](CC2CCCCC2)N(C)C(=O)CN(C)C(=O)CN(C)C1=O [Compound 2162] ([NMeA]I[Sar][Sar][NMeCha][Sar][hPhe(3-Cl-4-CF3)][NEtPhe(2-Cl)][Ac5c][NMeV][NMeD]-Pyrrolidide; lactam N-11),200
7,CC[C@H](C)[C@@H]1NC(=O)[C@H](CC(C)C)N(C)C(=O)C[C@@H](C(=O)N2CCCCC2)N(C)C(=O)[C@H](C2CCCCC2)N(C)C(=O)C2(CCCC2)NC(=O)[C@H](Cc2ccc(O)c(F)c2)N(C)C(=O)[C@H](CCc2ccc(C(F)(F)F)c(Cl)c2)NC(=O)CN(C)C(=O)[C@H](CC2CCCCC2)N(C)C(=O)CN(C)C(=O)CN(C)C1=O [Compound 2170] ([NMeL]I[Sar][Sar][NMeCha][Sar][hPhe(3-Cl-4-CF3)][NMeTyr(3-F)][Ac5c][NMeChg][NMeD]-Piperidide; lactam N-11),69
8,CC[C@H](C)[C@@H]1NC(=O)[C@H](CC(C)C)N(C)C(=O)C[C@@H](C(=O)N2CCCCC2)N(C)C(=O)[C@H](C2CCCCC2)N(C)C(=O)C2(CCCC2)NC(=O)[C@H](Cc2ccc(OC)cc2)N(C)C(=O)[C@H](CCc2ccc(C(F)(F)F)c(Cl)c2)NC(=O)CN(C)C(=O)[C@H](CC2CCCCC2)N(C)C(=O)CN(C)C(=O)CN(C)C1=O [Compound 2171] ([NMeL]I[Sar][Sar][NMeCha][Sar][hPhe(3-Cl-4-CF3)][NMeY](Me)[Ac5c][NMeChg][NMeD]-Piperidide; lactam N-11),120
9,"CC[C@H](C)[C@@H]1NC(=O)[C@H](CC(C)C)N(C)C(=O)C[C@@H](C(=O)N(C)C)N(C)C(=O)[C@H]([C@@H](C)CC)N(C)C(=O)C2(CCCC2)NC(=O)CN(CCOCCN(C)C)C(=O)C(CCc2ccc(C(F)(F)F)c(Cl)c2)NC(=O)CN(C)C(=O)[C@H](Cc2ccc(C)cc2)N(C)C(=O)[C@@H]2CCN2C(=O)[C@H](C)N(C)C1=O (stereo partly drawn) [Compound 2181, (3S,6S,9S,13S,16S,31S,34S)-25-[2-[3-chloro-4-(trifluoromethyl)phenyl]ethyl]-23-[2-[2-(dimethylamino)ethoxy]ethyl]-9-isobutyl-N,N,3,4,10,14,17,29,32-nonamethyl-6,16-bis[(1S)-1-methylpropyl]-2,5,8,11,15,18,21,24,27,30,33-undecaoxo-31-(p-tolylmethyl)spiro[1,4,7,10,14,17,20,23,26,29,32-undecazabicyclo[32.2.0]hexatriacontane-19,1′-cyclopentane]-13-carboxamide] ([NMeL]I[NMeA][Aze][NMePhe(4-Me)][Sar][X63][X64][Ac5c][NMeI][NMeD]-NMe2; lactam N-11)",5.5

# — US12371454B2, “Cyclic peptide compound having Kras inhibitory action” (priority 2019, dated 2025)
